“And” between values parts separate entries of the source, which are not always exact repeats. Identical values can stand only once.
What was measured:
MV4-11 = assay: Differentiation-apoptosis assay, CD11b / annexin-V / Sytox Green / myeloid markers flow cytometry; format: cell-based, human; set-up: Cell viability (%): concentration or dose not given beside the values
Procedure: (§1) Next, the cells were washed twice with phosphate-buffered saline (PBS) and resuspended in 1X Binding Buffer at a concentration of 1 × 10^6 cells/mL. An 8-µL aliquot of APC-CD11b (BD Pharmingen, Franklin Lakes, NJ, USA) and 1 µL of FITC annexin-V (AV) (BD Pharmingen, Franklin Lakes, NJ, USA) antibodies were added and incubated for 15 min at room temperature in the dark. Finally, after the addition of 400 µL of 1X Binding Buffer to each tube, samples were collected on a BD FACSCanto flow cytometer (Becton Dickinson, San Jose, CA, USA) and analyzed using FlowJo software.
For the rest of experiments, the mix of antibodies (2 µL of BV786-CD13, Cat No, 744748 BD; 1 µL of diluted 1:10 antibody of PB-HLADR, Cat No 307633, Biolegend; 5 µL of APCH7-CD14, Cat No 641394, BD) was added to 10 µL of Brilliant Stain Buffer Plus (Becton Dickinson, San Jose, CA, USA). Then, 1 million cells (volume of 250 µL) were added and incubated for 30 min at room temperature in darkness. After 10 min incubation at room temperature with 2 mL of FACSLysing 1X, cells were centrifuged at 540 g for 5 min and washed twice with FACSBuffer. Finally, after centrifugation at 540 g for 5 min cells were resuspended in FACSBuffer.

OCI-AML3 = assay: Differentiation assay, CD11b / annexin-V flow cytometry; format: cell-based; conditions: OCI-AML-3 cell line; replicates 1-3 (Figure 2A)
Procedure: as §1

GF-D8 = assay: as above; format: cell-based; conditions: GF-D8 cell line; replicates 1-3 (Figure 2A);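 also: daily treatment at a GI50-based fraction of each compound's GI50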
Procedure: as §1

KASUMI-1 = assay: as above; format: cell-based; conditions: KASUMI-1 cell line; replicates 1-3 (Figure 2A);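 also: daily treatment at a GI50-based fraction of each compound's GI50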
Procedure: as §1

OCI-AML2 = assay: as above; format: cell-based; conditions: OCI-AML-2 cell line; replicates 1-3 (Figure 2A)
Procedure: as §1

THP-1 = assay: as above; format: cell-based; conditions: THP-1 cell line; replicates 1-3 (Figure 2A)
Procedure: as §1

MONO-MAC-6 = assay: as above; format: cell-based; conditions: MONOMAC-6 cell line; replicates 1-3 (Figure 2A)
Procedure: as §1

UT-7 = assay: as above; format: cell-based; conditions: UT7 cell line; replicates 1-3 (Figure 2A)
Procedure: as §1

TF-1 = assay: as above; format: cell-based; conditions: TF-1 cell line; replicates 1-3 (Figure 2A);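 also: daily treatment at a GI50-based fraction of each compound's GI50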
Procedure: as §1

NB-4 = assay: as above; format: cell-based
Procedure: as §1

HEL = assay: as above; format: cell-based; conditions: HEL cell line; replicates 1-3 (Figure 2A)
Procedure: as §1

M-O7e = assay: as above; format: cell-based; conditions: MO7e cell line; replicates 1-3 (Figure 2A);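 also: daily treatment at a GI50-based fraction of each compound's GI50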
Procedure: as §1

HL-60 = assay: Differentiation-apoptosis assay, CD11b / annexin-V / Sytox Green / myeloid markers flow cytometry; format: cell-based, human; set-up: Cell viability (%): concentration or dose not given beside the values; conditions: for Annexin V (%) Replicate 1 / Annexin V (%) Replicate 2 / Annexin V (%) Replicate 3 / CD11b (%) Replicate 1 / CD11b (%) Replicate 2 / CD11b (%) Replicate 3: HL-60, daily 25% GI50, 48 h
Procedure: Next, the cells were washed twice with phosphate-buffered saline (PBS) and resuspended in 1X Binding Buffer at a concentration of 1 × 10^6 cells/mL. […] Finally, after the addition of 400 µL of 1X Binding Buffer to each tube, samples were collected on a BD FACSCanto flow cytometer (Becton Dickinson, San Jose, CA, USA) and analyzed using FlowJo software.
Then, 1 million cells (volume of 250 µL) were added and incubated for 30 min at room temperature in darkness. After 10 min incubation at room temperature with 2 mL of FACSLysing 1X, cells were centrifuged at 540 g for 5 min and washed twice with FACSBuffer. Finally, after centrifugation at 540 g for 5 min cells were resuspended in FACSBuffer.

[1] = test system: primary AML patient samples; assay: Differentiation assay, CD11b flow cytometry in primary samples; format: cell-based, human; conditions: for CD11b-positive cells (%): daily 48 h
Procedure: as §1
Peripheral blood (PB) specimens were obtained from preliminarily diagnosed AML patients who had not received any treatment before specimens were collected. All patients gave informed consent for their participation in this study, which was approved by the Clinical Research Ethics Committee of Clínica Universidad de Navarra. Written informed consent was obtained from each participant. PB was mixed with an ammonium chloride-potassium (ACK) buffer lysis (0.15 mol/L NH4Cl, 10 mmol/L KHCO3, 0.1 mmol/L ethylenediaminetetraacetic acid, pH 7.2) at a 1:2 volume ratio by gentle inversion, incubated for 10 min and centrifuged at 200 g for 10 min. The cell pellet was washed twice with PBS and finally resuspended in EGM2 medium (Cambrex Bioscience, Walkersville, MD). EGM2 contains 2% fetal calf serum, hydrocortisone, heparin, antibiotics, epidermal growth factor, human fibroblast growth factor, insulin-like growth factor, vascular endothelial growth factor, and ascorbic acid. The cells were plated at 1 × 10^6 cells/mL and treated daily with 200 and 500 nM of CM-444 and CM-1758 for 48 h. Next, the differentiation assay was performed as described above.

[2] = MV4-11, 48 h treatment, replicates 1-3 (Suppl. Fig. 5A)
[3] = HL-60, 48 h treatment, replicates 1-3 (Suppl. Fig. 5A)

Q: `CC1=C(/C=C/C(C)=C/C=C/C(C)=C/C(=O)O)C(C)(C)CCC1` [ATRA, all-trans retinoic acid, reference compound] was tested. Which “CD11b (%)” value (MV4-11; MV4-11 cell line, replicates 1-3 (Figure 2A)) did it give?
A: 9.6% and 4.7% and 11.86%

Q: And the “CD11b (%)” value (OCI-AML3)?
A: 19.3% and 12.4% and 11.8%

Q: What about the “CD11b (%)” value (GF-D8) of the same molecule?
A: 5.2% and 12.5% and 12.9%

Q: And the “CD11b (%)” value (KASUMI-1)?
A: 1.2% and 9.5% and 4.6%

Q: And the “CD11b (%)” value (OCI-AML2)?
A: 15.2% and 20.2% and 14.1%

Q: And the “CD11b (%)” value (THP-1)?
A: 48.6% and 40.2% and 38.7%

Q: What about the “CD11b (%)” value (MONO-MAC-6) of the same molecule?
A: 10.8% and 15.4% and 11.3%

Q: And the “CD11b (%)” value (UT-7)?
A: 5.9% and 6.4% and 10.05%

Q: What about the “CD11b (%)” value (TF-1) of the same molecule?
A: 36.7% and 30.4% and 33.4%

Q: What about the “CD11b (%)” value (NB-4; NB4 cell line, replicates 1-3 (Figure 2A)) of the same molecule?
A: 89.2% and 76.4% and 74.85%

Q: What about the “differentiation (CD11b)” value (NB-4; NB-4, daily 25% GI50, 48 h) of the same molecule?
A: induced differentiation

Q: And the “CD11b (%)” value (HEL)?
A: 1.5% and 0.9% and 3.54%

Q: What about the “CD11b (%)” value (M-O7e) of the same molecule?
A: 0.25% and 2.3% and 4.5%

Q: What about the “Annexin V (%) Replicate 1” value (HL-60) of the same molecule?
A: 0.34%

Q: And the “Annexin V (%) Replicate 2” value (HL-60)?
A: 0.98%

Q: What about the “Annexin V (%) Replicate 3” value (HL-60) of the same molecule?
A: 0.97%

Q: What about the “CD11b (%) Replicate 1” value (HL-60) of the same molecule?
A: 10.12%

Q: What about the “CD11b (%) Replicate 2” value (HL-60) of the same molecule?
A: 15.48%

Q: What about the “CD11b (%) Replicate 3” value (HL-60) of the same molecule?
A: 12.56%

Q: And the “CD11b (%)” value (HL-60; HL-60 cell line, replicates 1-3 (Figure 2A))?
A: 10.3% and 15.8% and 12.06%

Q: What about the “CD11b (%)” value ([1]; primary AML patient sample 1 (Figure 2C)) of the same molecule?
A: 26.1%

Q: And the “CD11b (%)” value ([1]; primary AML patient sample 2 (Figure 2C))?
A: 17.45%

Q: What about the “CD11b (%)” value ([1]; primary AML patient sample 3 (Figure 2C)) of the same molecule?
A: 10.26%

Q: What about the “CD11b (%)” value ([1]; primary AML patient sample 4 (Figure 2C)) of the same molecule?
A: 25.36%

Q: And the “CD11b (%)” value ([1]; primary AML patient sample 5 (Figure 2C))?
A: 15.2%

Q: And the “CD11b (%)” value ([1]; primary AML patient sample 6 (Figure 2C))?
A: 16.3%

Q: And the “CD11b (%)” value ([1]; primary AML patient sample 7 (Figure 2C))?
A: 29.3%

Q: And the “CD11b (%)” value ([1]; primary AML patient sample 8 (Figure 2C))?
A: 13.25%

Q: What about the “CD11b-positive cells (%)” value ([1]; sample AML-1, 2 µM) of the same molecule?
A: 26.1%

Q: And the “CD11b-positive cells (%)” value ([1]; sample AML-2, 2 µM)?
A: 17.5%

Q: And the “CD11b-positive cells (%)” value ([1]; sample AML-3, 2 µM)?
A: 10.3%

Q: And the “CD11b-positive cells (%)” value ([1]; sample AML-4, 2 µM)?
A: 25.4%

Q: And the “CD11b-positive cells (%)” value ([1]; sample AML-5, 2 µM)?
A: 15.2%

Q: And the “CD11b-positive cells (%)” value ([1]; sample AML-6, 2 µM)?
A: 16.3%

Q: What about the “CD11b-positive cells (%)” value ([1]; sample AML-7, 2 µM) of the same molecule?
A: 29.3%

Q: What about the “CD11b-positive cells (%)” value ([1]; sample AML-8, 2 µM) of the same molecule?
A: 13.3%

Q: Which results are given for `Cc1[nH]c2ccccc2c1CCNCc1ccc(/C=C/C(=O)NO)cc1` [Panobinostat, reference compound]?
A: CD11b (%) (MV4-11; [2]): 12.9% and 19.4% and 18.7%; Cell viability (%) (MV4-11; [2]): 38.3% and 43.2% and 44.2%; CD11b (%) (HL-60; [3]): 10.8% and 18.5%; Cell viability (%) (HL-60; [3]): 45.2% and 38.6% and 44.9%; Annexin V (%) Replicate 1 (HL-60): 20.30%; Annexin V (%) Replicate 2 (HL-60): 24.90%; Annexin V (%) Replicate 3 (HL-60): 22.00%; CD11b (%) Replicate 1 (HL-60): 12.07%; CD11b (%) Replicate 2 (HL-60): 18.60%; CD11b (%) Replicate 3 (HL-60): 12.38%

Q: With `O=C(CCCCCCC(=O)Nc1ccccc1)NO` [Vorinostat, reference compound] as the molecule, how does the “CD11b (%)” value (MV4-11; [2]) read?
A: 15.2% and 20.7% and 19.4%

Q: What about the “Cell viability (%)” value (MV4-11; [2]) of the same molecule?
A: 86.1% and 89% and 91%

Q: What about the “CD11b (%)” value (HL-60; [3]) of the same molecule?
A: 30.8% and 39.8% and 27.7%

Q: And the “Cell viability (%)” value (HL-60; [3])?
A: 74.2% and 83.6% and 75%

Source: article PMC11219871, “Epigenetic-based differentiation therapy for Acute Myeloid Leukemia” (Nature Communications, 2024)
